Assay results from patent US8497278B2, “Imidazo[1,2-a]pyridine compounds” (priority 2008, dated 2013).

Assays:
[1] = biological target: T1, α1 subtype containing GABA-A receptors (Homo sapiens, UniProt P14867+P18507); experiment: Two-electrode voltage clamp electrophysiology in Xenopus oocytes, potentiation of GABA EC20 response, α1; type: cell-based; details: 100 nM compound; for activation at 0.1 µM: read-out: Percentage of potentiation alpha1
T1 construct: expressed in transfected cells; host or cells: Xenopus laevis oocytes, cRNA injected
T1 sequence (P14867 28-456): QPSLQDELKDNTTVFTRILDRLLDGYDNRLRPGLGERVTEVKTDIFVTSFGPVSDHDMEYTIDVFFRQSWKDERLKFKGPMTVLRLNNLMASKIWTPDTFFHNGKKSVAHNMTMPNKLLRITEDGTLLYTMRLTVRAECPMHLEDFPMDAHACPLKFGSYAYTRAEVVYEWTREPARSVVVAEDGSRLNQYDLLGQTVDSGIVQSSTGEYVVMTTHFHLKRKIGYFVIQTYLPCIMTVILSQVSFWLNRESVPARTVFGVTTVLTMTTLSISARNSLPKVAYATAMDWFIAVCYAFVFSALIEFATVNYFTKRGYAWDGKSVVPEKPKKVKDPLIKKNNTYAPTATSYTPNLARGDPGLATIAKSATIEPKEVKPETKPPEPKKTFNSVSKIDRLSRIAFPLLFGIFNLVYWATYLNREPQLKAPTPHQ
T1 sequence (P28472 26-473 partner): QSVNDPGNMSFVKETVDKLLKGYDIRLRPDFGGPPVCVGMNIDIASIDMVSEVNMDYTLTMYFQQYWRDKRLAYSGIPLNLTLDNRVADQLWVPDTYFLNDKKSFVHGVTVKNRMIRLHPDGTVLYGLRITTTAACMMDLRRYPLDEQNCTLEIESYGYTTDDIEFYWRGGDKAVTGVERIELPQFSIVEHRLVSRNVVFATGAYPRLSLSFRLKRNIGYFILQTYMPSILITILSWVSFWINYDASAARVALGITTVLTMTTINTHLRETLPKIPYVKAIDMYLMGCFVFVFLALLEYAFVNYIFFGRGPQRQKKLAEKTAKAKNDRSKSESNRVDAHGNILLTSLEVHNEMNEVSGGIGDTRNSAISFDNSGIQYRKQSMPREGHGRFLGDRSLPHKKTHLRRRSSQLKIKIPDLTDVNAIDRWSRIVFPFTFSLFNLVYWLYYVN
T1 sequence (P18507 40-475): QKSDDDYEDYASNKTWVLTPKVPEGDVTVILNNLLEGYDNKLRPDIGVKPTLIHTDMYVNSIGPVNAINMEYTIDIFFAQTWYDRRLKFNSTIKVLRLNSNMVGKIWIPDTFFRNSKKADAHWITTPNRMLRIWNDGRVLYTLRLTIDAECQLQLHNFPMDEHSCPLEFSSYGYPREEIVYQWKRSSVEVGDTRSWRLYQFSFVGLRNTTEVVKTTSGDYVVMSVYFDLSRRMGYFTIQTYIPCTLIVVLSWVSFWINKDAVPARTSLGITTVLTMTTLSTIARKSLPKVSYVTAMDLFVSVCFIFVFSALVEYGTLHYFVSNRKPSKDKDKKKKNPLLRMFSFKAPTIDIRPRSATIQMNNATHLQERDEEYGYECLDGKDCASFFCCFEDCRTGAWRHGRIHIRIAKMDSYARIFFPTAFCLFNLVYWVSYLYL
Summary of the method: (§1)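 Stage 5–6 Xenopus oocytes were injected with cRNA for human α subunit plus β3 and γ2L, then voltage-clamped at −80 mV under ND96 perfusion. Each received 60 μM GABA (EC20), a 1 μM chlordiazepoxide control, and then a single 100 nM compound application.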

[2] = tested on: Swiss Webster (CFW) mice; experiment: Four Plate Test (FPT); type: in vivo; details: mouse, 30 min before test, 2 min session
Excerpt: Four Plate Test (FPT) Protocol: The four plate test (FPT) is an animal model of anxiety in which simple ongoing behavior (exploration of novel surroundings) is suppressed by the delivery of mild electric foot-shock contingent to quadrant crossing (Aron, et al., 1971). Clinically effective classes of anxiolytic compounds such as benzodiazepines, selective serotonin reuptake inhibitors, or 5-HT1A receptor agonists produce a marked anti-punishment effect (an increase in punished crossings), which is thought to indicate anxiolytic activity (Aron, et al., 1971; Bourin, et al., 1992; Hascoet, et al., 2000; Ring, et al., 2006). The four plate apparatus (Bioseb, Chaville France) consists of a cage (18×25×16 cm) floored by four identical rectangular metal plates (8×11 cm) separated from one another by a gap of 4 mm. The plates are connected to a shocker unit that can generate electric foot shocks.
Male Swiss Webster (CFW) mice from Charles River (Wilmington, Mass.) were used for the FPT. Mice were received at 3-weeks of age. Upon receipt, mice were assigned unique identification numbers (tail marked) and were group housed with 4 mice per cage in mouse ventilated racks. All animals remained housed in groups of four during the remainder of the study. All mice were acclimated to the colony room for at least one week prior to testing and were subsequently tested at an average age of 4 weeks of age. During the period of acclimation, mice […] were examined on a regular basis, handled, and weighed to assure adequate healtH, D and suitability. Animals were maintained on a 12/12 light/dark cycle. The room temperature was maintained between 20 and 23° C. with a relative humidity maintained between 30% and 70%. Chow and water were provided ad libitum for the duration of the study. In each test, animals were randomly assigned across treatment groups. Alprazolam (0.3 mg/kg) was used as the positive control. Compounds of the present invention, vehicle (45% hydroxypropyl beta-cyclodextrin) and alprazolam were administered orally to all groups (n=10 mice per group) 30 minutes prior to behavioral testing. Following pretreatment, mice were gently placed in the four plate chamber and allowed to explore the enclosure for 18 seconds. After the exploration period, every time the mouse crossed from one plate to another, the experimenter, blind to the dosing conditions, administered a mild electric foot-shock, and referred to as a punished crossing. The intensity and duration of the foot-shock were 0.5 mA for 0.5 seconds. The number of punished crossings was recorded during the 2 min test session. The plates were thoroughly cleaned with 70% ethanol immediately after each mouse. All data were analyzed using an analysis of variance (ANOVA) followed by Fisher's PLSD post hoc test. An effect was considered significance if p<0.05. Statistical outliers above or below 2 standard deviations from the mean in any of the […] were removed from the final analysis.

[3] = tested on: Wistar rats; experiment: Vogel conflict test; type: in vivo; details: rat, 60 min before test, 3 minute test
Procedure: Vogel Conflict Test Protocol: The Vogel conflict test is an animal model of anxiety described by Vogel et al. (1971). In this test, water deprived animals are placed in a cage with free access to a drinking bottle. Whenever the animal drinks, an electric shock is administered. Animals punished during drinking rapidly cease to drink. Anxiolytic drugs decrease the effect of punishment and increase the number of shocks accepted by the rats in this conflict situation. Male Wistar rats were used in these studies. Rats were deprived of water for approximately 48 hours and then placed individually into a transparent Plexiglas enclosure with a floor consisting of stainless steel bars spaced 1 cm apart. The back wall of the enclosure was made of opaque Plexiglas thereby concealing the observer from the experimental animal. In the center of the opposite wall, 5 cm above the floor, a metal water spout protruded into the cage and was connected to one pole of a shock generator. The other pole of the shock generator was connected to the metal grid floor. The rat is left to explore until it finds the water spout. Then, every time it drinks, it receives an electric shock (1.7 mA, 1 sec duration) 2 seconds after it starts drinking The number of punished drinks is counted during a 3 minute test. Ten rats are studied per treatment group. Clobazam (64 mg/kg) was used as the positive control. Compounds of the present invention, vehicle (45% hydroxypropyl beta-cyclodextrin) and clobazam were administered orally to all groups (n=10 […] per group) 60 minutes prior to behavioral testing. All data were analyzed using unpaired Student's t-tests. An effect was considered significance if p<0.05.

[4] = biological target: T2, α2 subtype containing GABA-A receptors (Homo sapiens, UniProt P18507+P47869); experiment: Two-electrode voltage clamp electrophysiology in Xenopus oocytes, potentiation of GABA EC20 response, α2; type: cell-based; details: 100 nM compound; for activation at 0.1 µM: read-out: Percentage of potentiation alpha2
T2 construct: expressed in transfected cells; host or cells: Xenopus laevis oocytes, cRNA injected
T2 sequence (P47869 29-451): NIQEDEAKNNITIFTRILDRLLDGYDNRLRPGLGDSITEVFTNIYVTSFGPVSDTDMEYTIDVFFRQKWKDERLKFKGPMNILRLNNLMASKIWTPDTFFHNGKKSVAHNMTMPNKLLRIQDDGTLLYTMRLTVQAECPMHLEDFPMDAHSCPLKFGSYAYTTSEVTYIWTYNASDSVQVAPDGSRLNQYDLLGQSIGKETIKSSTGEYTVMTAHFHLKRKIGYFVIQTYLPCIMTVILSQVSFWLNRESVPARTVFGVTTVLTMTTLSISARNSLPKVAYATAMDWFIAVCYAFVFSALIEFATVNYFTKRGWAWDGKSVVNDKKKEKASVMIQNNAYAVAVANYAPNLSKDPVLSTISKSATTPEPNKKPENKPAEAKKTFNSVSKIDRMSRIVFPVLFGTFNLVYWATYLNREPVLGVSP
T2 sequence (P28472 26-473 partner): as the sequence (P28472 26-473 partner) above
T2 sequence (P18507 40-475): as the sequence (P18507 40-475) above
Summary of the method: as §1

Row | Structure (SMILES) | activation at 0.1 µM [1] [%] | Number of Punished Crossings Mean ± S.E.M. ([2]; 3 mg/kg PO) | Number of Punished Crossings Mean ± S.E.M. ([2]; 10 mg/kg PO) | Number of Punished Crossings Mean ± S.E.M. ([2]; 30 mg/kg PO) | Number of Shocks Mean ± S.E.M. ([3]; 3 mg/kg PO) | Number of Shocks Mean ± S.E.M. ([3]; 10 mg/kg PO) | Number of Shocks Mean ± S.E.M. ([3]; 30 mg/kg PO) | activation at 0.1 µM [4] [%] | Percentage of potentiation alpha1 [1] | Percentage of potentiation alpha2 [4]
1 | Clc1ccc(-c2nc3cccnn3c2Cn2cncn2)cc1 [Compound 32, 3-((1H-1,2,4-triazol-1-yl)methyl)-2-(4-chlorophenyl)imidazo[1,2-b]pyridazine] | 10 to 50 | 6.6 ± 0.72 | 6.6 ± 0.67 | 5.7 ± 0.94 | 3.8 ± 0.6 | 3.8 ± 0.7 | 6.6 ± 2.3 | 10 to 50 |  | 
2 | NC(=O)c1ncn(Cc2c(-c3ccc(Cl)cc3)nc3ccccn23)n1 [Compound 72, 1-((2-(4-chlorophenyl)imidazo[1,2-a]pyridin-3-yl)methyl)-1H-1,2,4-triazole-3-carboxamide] | 10 to 50 | 5.8 ± 0.63 | 5.2 ± 0.47 | 4.8 ± 0.36 |  |  |  | ≥ 50 |  | 
3 | CNC(=O)c1nccn1Cc1c(-c2ccc(Cl)cc2)nc2ccccn12 [Compound 77, 1-((2-(4-chlorophenyl)H-imidazo[1,2-a]pyridin-3-yl)methyl)-N-methyl-1H-imidazole-2-carboxamide] |  | 4.3 ± 0.26 | 4.6 ± 0.31 | 5.0 ± 0.37 |  |  |  |  | 0 (percentage of potentiation is between about 10% to about −10%) | + (percentage of potentiation is greater than or equal to 10% but less than 50% in the presence of 100 nM of the compound)
4 | Cc1ccn(Cc2c(-c3ccc(Cl)cc3)nc3ccccn23)c(=O)n1 [Compound 105, 1-((2-(4-chlorophenyl)imidazo[1,2-a]pyridin-3-yl)methyl)-4-methylpyrimidin-2(1H)-one] | 10 to 50 | 6.7 ± 0.34 | 5.5 ± 0.60 | 5.6 ± 0.52 | 5.1 ± 0.6 | 5.8 ± 0.8 | 8.2 ± 1.8 | 10 to 50 |  | 
5 | Cn1ncnc1Cc1c(-c2ccc(F)cc2)nc2ccc(F)cn12 [Compound 200, 6-fluoro-2-(4-fluorophenyl)-3-((1-methyl-1H-1,2,4-triazol-5-yl)methyl)imidazo[1,2-a]pyridine] | 10 to 50 | 7.2 ± 0.52 | 8.6 ± 0.43 | 7.5 ± 0.39 | 8.4 ± 2.1 | 8.9 ± 2.3 | 9.5 ± 2.1 | ≥ 50 |  | 
6 | Clc1ccc(-c2nc3ccccn3c2Cc2ncn[nH]2)cc1 [Compound 211, 3-((1H-1,2,4-triazol-5-yl)methyl)-2-(4-chlorophenyl)imidazo[1,2-a]pyridine] | 10 to 50 | 7.8 ± 0.59 | 8.6 ± 0.85 | 8.9 ± 0.57 | 3.9 ± 0.5 | 5.3 ± 0.8 | 5.0 ± 1.1 | ≥ 50 |  | 
